Data as given in patent US20150197497A1, “SELECTIVE INHIBITORS OF HISTONE DEACETYLASE ISOFORM 6 AND METHODS THEREOF” (DANA-FARBER CANCER INSTITUTE, INC., priority 2011, published 2015).

Experiments:
[1] = target: T1, HDAC5 (Homo sapiens, UniProt Q9UQL6); test: In vitro HDAC enzyme inhibition assay, HDAC5; format: biochemical; conditions: for HDAC5/HDAC6 in vitro selectivity: ratio of IC50 for HDAC5 relative to that of HDAC6; for IC50: recombinant full-length HDAC5, substrate MAZ1675 40 μM
T1 construct: Recombinant, full-length HDAC protein (BPS Biosciences) was incubated with fluorophore conjugated substrate; purchased BPS Biosciences
T1 sequence (Q9UQL6 whole entry): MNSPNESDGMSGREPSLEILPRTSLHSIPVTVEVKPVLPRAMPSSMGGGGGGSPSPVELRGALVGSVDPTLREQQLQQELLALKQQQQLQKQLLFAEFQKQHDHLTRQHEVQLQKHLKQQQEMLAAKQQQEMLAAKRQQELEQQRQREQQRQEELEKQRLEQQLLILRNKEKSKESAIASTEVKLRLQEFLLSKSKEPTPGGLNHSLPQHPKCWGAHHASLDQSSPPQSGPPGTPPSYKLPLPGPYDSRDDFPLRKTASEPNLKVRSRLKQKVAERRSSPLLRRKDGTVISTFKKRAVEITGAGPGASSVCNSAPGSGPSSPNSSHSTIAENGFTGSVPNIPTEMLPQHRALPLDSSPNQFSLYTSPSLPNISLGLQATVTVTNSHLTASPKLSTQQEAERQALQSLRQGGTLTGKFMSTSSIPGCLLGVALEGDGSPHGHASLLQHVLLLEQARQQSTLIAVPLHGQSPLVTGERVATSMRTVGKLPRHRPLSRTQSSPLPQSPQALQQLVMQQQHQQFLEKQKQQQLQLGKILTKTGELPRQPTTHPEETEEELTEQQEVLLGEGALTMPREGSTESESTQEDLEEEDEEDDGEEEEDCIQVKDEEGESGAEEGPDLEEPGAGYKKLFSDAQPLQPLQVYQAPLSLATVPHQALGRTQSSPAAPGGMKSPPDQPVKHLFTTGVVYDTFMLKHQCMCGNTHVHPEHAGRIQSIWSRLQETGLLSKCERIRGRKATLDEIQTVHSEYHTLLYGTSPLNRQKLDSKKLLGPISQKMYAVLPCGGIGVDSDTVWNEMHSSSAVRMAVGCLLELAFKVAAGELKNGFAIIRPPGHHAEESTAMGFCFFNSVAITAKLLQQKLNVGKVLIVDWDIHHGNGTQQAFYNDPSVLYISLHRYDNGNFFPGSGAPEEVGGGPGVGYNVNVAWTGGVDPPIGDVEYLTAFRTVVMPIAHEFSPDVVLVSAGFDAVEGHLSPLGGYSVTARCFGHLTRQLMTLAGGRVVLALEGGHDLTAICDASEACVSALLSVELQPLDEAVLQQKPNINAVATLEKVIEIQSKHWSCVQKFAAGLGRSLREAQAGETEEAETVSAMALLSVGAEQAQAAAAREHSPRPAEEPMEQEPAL
How it was run: (§1)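 Full-length recombinant enzyme + MAZ1600/MAZ1675 substrate at [S]=Km, HEPES/KCl/Tween-20/BSA/TCEP buffer pH 7.4; AMC fluorescence via deacetylase + trypsin, kinetic read q5 min; slope in linear range normalized to controls.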

[2] = target: T2, HDAC3 (Homo sapiens, UniProt O15379); test: In vitro HDAC enzyme inhibition assay, HDAC3; format: biochemical; conditions: for HDAC3/HDAC6 in vitro selectivity: ratio of IC50 for HDAC3 relative to that of HDAC6; for IC50: recombinant full-length HDAC3, substrate MAZ1600 9 μM
T2 construct: Recombinant, full-length HDAC protein (BPS Biosciences) was incubated with fluorophore conjugated substrate; purchased BPS Biosciences
T2 sequence (O15379 whole entry): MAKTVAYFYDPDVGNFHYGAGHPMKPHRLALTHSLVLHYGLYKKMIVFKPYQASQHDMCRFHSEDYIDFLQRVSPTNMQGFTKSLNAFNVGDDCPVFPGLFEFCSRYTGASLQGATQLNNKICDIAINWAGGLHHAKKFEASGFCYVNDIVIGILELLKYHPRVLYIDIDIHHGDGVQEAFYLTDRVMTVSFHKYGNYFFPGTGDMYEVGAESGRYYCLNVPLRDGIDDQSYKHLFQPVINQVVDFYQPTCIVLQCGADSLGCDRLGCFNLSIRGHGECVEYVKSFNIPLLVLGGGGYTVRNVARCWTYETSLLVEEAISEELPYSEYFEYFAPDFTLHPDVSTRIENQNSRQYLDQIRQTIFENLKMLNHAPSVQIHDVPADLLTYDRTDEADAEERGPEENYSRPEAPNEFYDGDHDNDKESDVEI
T2 sequence (Q9Y618 395-489 partner limits assumed): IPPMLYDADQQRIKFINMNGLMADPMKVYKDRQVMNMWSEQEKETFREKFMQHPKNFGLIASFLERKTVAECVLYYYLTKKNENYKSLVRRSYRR
How it was run: as §1

[3] = system: acetylated histones; test: High-content image analysis of induction of acetylated histones in A549 cells; conditions: Homo sapiens, A549, 8 h, read-out: EC50 for half-maximal induction of acetylated histones (AcHistone)
[4] = target: T3, HDAC4 (Homo sapiens, UniProt P56524); test: In vitro HDAC enzyme inhibition assay, HDAC4; format: biochemical; conditions: for HDAC4/HDAC6 in vitro selectivity: ratio of IC50 for HDAC4 relative to that of HDAC6; for IC50: recombinant full-length HDAC4, substrate MAZ1675 10 μM; for selectivity toward HDAC6 compared to HDAC4 (in words): tested in vitro
T3 construct: Recombinant, full-length HDAC protein (BPS Biosciences) was incubated with fluorophore conjugated substrate; purchased BPS Biosciences
T3 sequence (P56524 whole entry): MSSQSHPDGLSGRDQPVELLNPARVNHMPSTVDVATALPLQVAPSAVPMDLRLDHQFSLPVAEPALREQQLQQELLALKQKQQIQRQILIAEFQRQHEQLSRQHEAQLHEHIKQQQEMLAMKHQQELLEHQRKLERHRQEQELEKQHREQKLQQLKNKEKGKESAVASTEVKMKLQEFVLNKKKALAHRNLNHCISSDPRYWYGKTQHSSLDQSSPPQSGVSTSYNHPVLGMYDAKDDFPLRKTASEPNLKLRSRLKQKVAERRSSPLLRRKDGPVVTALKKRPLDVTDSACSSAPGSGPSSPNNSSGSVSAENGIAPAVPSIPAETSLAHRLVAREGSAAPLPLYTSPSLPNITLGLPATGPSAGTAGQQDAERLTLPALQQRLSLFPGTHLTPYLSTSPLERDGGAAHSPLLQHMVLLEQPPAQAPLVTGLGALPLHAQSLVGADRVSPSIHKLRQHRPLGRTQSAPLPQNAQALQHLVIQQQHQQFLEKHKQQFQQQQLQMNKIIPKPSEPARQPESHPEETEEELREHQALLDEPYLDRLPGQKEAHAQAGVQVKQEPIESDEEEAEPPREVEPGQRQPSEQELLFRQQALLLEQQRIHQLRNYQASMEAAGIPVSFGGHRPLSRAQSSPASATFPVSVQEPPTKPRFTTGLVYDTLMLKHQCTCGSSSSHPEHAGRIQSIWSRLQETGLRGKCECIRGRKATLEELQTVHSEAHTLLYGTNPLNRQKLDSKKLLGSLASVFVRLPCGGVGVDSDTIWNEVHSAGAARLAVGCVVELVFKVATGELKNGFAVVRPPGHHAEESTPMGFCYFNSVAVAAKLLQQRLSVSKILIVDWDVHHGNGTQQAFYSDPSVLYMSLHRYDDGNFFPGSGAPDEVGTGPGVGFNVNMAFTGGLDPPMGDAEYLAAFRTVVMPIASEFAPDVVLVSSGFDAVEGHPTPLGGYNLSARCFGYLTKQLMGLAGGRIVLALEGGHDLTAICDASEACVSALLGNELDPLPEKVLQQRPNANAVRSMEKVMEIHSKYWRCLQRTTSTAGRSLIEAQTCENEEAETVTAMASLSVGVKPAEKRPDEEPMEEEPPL
How it was run: as §1

[5] = target: T4, HDAC6 (Homo sapiens, UniProt Q9UBN7); test: In vitro HDAC enzyme inhibition assay, HDAC6; format: biochemical; conditions: recombinant full-length HDAC6, substrate MAZ1600 9 μM
T4 construct: Recombinant, full-length HDAC protein (BPS Biosciences) was incubated with fluorophore conjugated substrate; purchased BPS Biosciences
T4 sequence (Q9UBN7 1-1215): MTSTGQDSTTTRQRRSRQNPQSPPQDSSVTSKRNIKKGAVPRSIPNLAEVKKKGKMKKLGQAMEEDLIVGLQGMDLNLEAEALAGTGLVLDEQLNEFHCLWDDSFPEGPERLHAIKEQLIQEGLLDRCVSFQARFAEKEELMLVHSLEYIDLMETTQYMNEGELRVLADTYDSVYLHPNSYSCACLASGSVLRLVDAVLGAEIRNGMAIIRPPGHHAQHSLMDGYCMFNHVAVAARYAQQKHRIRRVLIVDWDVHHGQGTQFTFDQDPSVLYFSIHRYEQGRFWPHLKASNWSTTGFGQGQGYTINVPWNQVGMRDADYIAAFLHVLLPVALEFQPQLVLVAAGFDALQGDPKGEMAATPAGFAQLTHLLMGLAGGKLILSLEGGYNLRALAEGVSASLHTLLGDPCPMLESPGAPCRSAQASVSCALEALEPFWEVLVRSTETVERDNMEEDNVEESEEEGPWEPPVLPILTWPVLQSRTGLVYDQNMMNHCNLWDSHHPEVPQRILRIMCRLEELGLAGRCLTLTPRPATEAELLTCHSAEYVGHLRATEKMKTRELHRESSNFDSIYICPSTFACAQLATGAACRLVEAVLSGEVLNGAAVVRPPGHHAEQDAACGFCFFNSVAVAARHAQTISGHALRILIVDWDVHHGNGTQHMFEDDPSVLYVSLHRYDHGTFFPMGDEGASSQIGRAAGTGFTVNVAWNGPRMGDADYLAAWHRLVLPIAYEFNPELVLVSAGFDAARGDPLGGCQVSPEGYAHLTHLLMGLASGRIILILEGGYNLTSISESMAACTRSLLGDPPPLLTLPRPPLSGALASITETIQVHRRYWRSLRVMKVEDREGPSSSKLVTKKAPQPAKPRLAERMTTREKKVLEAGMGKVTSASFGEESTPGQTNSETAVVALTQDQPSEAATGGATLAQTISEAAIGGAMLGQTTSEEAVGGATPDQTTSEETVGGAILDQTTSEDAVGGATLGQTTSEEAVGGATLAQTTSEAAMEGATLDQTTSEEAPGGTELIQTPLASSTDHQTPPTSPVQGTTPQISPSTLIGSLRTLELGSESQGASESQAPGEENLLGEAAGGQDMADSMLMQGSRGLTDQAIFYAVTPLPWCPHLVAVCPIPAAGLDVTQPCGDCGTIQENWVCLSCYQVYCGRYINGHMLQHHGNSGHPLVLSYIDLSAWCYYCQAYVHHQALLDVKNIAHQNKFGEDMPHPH
How it was run: as §1

[6] = system: acetylated tubulin; test: High-content image analysis of induction of acetylated tubulin in A549 cells; conditions: for EC50: Homo sapiens, A549, 8 h, read-out: EC50 for half-maximal induction of acetylated tubulin (AcTubulin); for AcHistone/AcTubulin in cell selectivity toward HDAC6: ratio of EC50 acetylated histone to EC50 acetylated tubulin, A549 cells
Protocol: Cells were treated with each test HDACi compound with an automated pin transfer instrument (Janus, Perkin Elmer) and incubated for 8 hours. […] Fixation solution was aspirated and 90 μL of washing solution (0.1% Triton X-100 in PBS) was added prior to 10 minute incubation at 4° C. Washing solution was aspirated and cells were incubated at 4° C. for about 1 hour in blocking solution (0.1% Triton X-100+2% BSA in PBS). Washing solution was aspirated, and cells were incubated for about 1 hour at 4° C. in primary antibody for acetylated-tubulin (Sigma T7451) and acetylated-histone (Cell Signaling #9441L) at a 1:1000 dilution in blocking solution. Primary antibody solution was aspirated, and cells were washed three times in 90 μL of washing solution. […] Secondary antibody and nuclear staining solution was aspirated and cells were washed three times in 90 μL of washing solution. After the third wash, 50 μL of PBS was added to each well. Image acquisition was done on a high content imaging microscope (ImageXpress Micro, Molecular Devices), and image analysis (MetaXpress, Molecular Devices) was performed to obtain average acetylated-tubulin and acetylated-histone signal per cell based on treatment. Replicate experimental data from incubations with inhibitor were normalized to DMSO controls.

[7] = target: T5, HDAC8 (Homo sapiens, UniProt Q9BY41); test: In vitro HDAC enzyme inhibition assay, HDAC8; format: biochemical; conditions: for HDAC8/HDAC6 in vitro selectivity: ratio of IC50 for HDAC8 relative to that of HDAC6; for IC50: recombinant full-length HDAC8, substrate MAZ1675 282 μM
T5 construct: Recombinant, full-length HDAC protein (BPS Biosciences) was incubated with fluorophore conjugated substrate; purchased BPS Biosciences
T5 sequence (Q9BY41 1-377): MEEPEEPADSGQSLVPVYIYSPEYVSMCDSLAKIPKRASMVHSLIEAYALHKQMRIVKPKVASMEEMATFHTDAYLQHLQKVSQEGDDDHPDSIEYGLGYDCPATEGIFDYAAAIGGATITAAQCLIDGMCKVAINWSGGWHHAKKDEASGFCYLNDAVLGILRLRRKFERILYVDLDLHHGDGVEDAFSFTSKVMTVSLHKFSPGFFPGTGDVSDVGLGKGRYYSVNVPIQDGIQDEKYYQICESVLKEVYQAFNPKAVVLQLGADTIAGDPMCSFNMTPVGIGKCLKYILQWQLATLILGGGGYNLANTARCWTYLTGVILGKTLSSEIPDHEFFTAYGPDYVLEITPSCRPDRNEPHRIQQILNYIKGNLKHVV
How it was run: as §1

[8] = target: T6, HDAC1 (Homo sapiens, UniProt Q13547); test: In vitro HDAC enzyme inhibition assay, HDAC1; format: biochemical; conditions: for HDAC1/HDAC6 in vitro selectivity: ratio of IC50 for HDAC1 relative to that of HDAC6; for IC50: recombinant full-length HDAC1, substrate MAZ1600 21 μM
T6 construct: Recombinant, full-length HDAC protein (BPS Biosciences) was incubated with fluorophore conjugated substrate; purchased BPS Biosciences
T6 sequence (Q13547 whole entry): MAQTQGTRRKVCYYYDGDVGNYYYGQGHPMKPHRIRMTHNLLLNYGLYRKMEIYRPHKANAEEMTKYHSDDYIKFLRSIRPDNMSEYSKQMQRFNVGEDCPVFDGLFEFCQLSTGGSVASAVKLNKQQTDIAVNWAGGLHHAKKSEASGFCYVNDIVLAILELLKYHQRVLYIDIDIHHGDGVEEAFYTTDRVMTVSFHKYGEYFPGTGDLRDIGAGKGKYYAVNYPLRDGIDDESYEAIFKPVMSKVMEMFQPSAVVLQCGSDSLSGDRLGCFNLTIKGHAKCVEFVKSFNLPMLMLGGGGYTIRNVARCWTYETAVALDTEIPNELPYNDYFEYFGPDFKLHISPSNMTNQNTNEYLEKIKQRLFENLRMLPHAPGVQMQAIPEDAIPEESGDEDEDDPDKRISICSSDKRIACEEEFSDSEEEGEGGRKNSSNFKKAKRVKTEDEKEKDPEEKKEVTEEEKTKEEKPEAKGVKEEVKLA
How it was run: as §1

[9] = target: T7, HDAC9 (Homo sapiens, UniProt Q9UKV0); test: In vitro HDAC enzyme inhibition assay, HDAC9; format: biochemical; conditions: for HDAC9/HDAC6 in vitro selectivity: ratio of IC50 for HDAC9 relative to that of HDAC6; for IC50: recombinant full-length HDAC9, substrate MAZ1675 26 μM; for selectivity toward HDAC6 compared to HDAC9 (in words): tested in vitro
T7 construct: Recombinant, full-length HDAC protein (BPS Biosciences) was incubated with fluorophore conjugated substrate; purchased BPS Biosciences
T7 sequence (Q9UKV0 whole entry): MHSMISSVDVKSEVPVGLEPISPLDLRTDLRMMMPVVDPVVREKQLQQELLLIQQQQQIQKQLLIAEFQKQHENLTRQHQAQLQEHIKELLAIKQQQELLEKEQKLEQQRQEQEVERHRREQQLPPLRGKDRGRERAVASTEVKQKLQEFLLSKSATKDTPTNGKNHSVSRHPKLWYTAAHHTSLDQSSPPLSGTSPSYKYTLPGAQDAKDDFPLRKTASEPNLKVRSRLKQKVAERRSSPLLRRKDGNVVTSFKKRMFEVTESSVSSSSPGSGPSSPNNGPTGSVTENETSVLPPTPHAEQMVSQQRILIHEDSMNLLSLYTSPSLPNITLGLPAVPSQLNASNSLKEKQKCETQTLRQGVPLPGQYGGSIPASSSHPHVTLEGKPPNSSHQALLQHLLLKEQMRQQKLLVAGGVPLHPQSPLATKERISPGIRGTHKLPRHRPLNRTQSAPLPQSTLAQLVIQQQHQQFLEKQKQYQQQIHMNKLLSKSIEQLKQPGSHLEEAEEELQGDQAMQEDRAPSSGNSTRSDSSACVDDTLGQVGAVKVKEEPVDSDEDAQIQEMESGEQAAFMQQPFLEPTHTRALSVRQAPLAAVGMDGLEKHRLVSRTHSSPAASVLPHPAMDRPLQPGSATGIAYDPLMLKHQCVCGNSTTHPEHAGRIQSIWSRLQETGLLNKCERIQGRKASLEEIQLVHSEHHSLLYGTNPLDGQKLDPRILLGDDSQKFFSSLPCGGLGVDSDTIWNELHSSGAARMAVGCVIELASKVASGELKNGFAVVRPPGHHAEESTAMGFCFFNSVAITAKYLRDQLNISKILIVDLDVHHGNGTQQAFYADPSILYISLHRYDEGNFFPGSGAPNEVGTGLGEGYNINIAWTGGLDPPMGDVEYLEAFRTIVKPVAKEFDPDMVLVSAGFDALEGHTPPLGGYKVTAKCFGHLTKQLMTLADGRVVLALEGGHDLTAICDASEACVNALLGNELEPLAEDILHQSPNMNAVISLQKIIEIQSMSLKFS
How it was run: as §1

HDAC5/HDAC6 in vitro selectivity [1]	IC50 [1] [nM]	HDAC3/HDAC6 in vitro selectivity [2]	IC50 [2] [nM]	EC50 [3] [nM]	HDAC4/HDAC6 in vitro selectivity [4]	IC50 [4] [nM]	IC50 [5] [nM]	EC50 [6] [nM]	HDAC8/HDAC6 in vitro selectivity [7]	IC50 [7] [nM]	HDAC1/HDAC6 in vitro selectivity [8]	IC50 [8] [nM]	HDAC9/HDAC6 in vitro selectivity [9]	IC50 [9] [nM]	Structure (SMILES)	AcHistone/AcTubulin in cell selectivity toward HDAC6 [6]	selectivity toward HDAC6 compared to HDAC4 (in words) [4]	selectivity toward HDAC6 compared to HDAC9 (in words) [9]	selectivity toward HDAC6 compared to HDAC5 (in words) ([1]; tested in vitro)
476	148	2529	784	1930	2783	862	0.31	190	3501	1080	541	167	2420	750	O=C(NO)c1ccc(Cn2c(C(F)(F)F)nc3cc(Br)ccc32)cc1 [A5, 4-((5-bromo-2-(trifluoromethyl)-1H-benzo[d]imidazol-l-yl)methyl)-N-hydroxybenzamide]	10.17			
26352	1460	3920	216	6040	34808	1920	0.0552	1920	11132	615	1712	94.5	26037	1440	O=C(NO)c1ccc(Cn2nnc3cc(Cl)ccc32)cc1 [C4, 4-((5-chloro-1H-benzo[d][1,2,3]triazol-1-yl)methyl)-N-hydroxybenzamide]	3.137	exceptionally high selectivity (Inhibitors with in vitro selectivity values for HDAC6 of at least 30,000 are considered to have exceptionally high selectivity toward HDAC6)		
15350	1020	9140	606	62.7	28751	1910	0.0663	132	12348	819	2812	186	32978	2190	O=C(NO)c1ccc(Cn2cnc3cc(F)ccc32)cc1 [A9, 4-((5-fluoro-1H-benzo[d]imidazol-1-yl)methyl)-N-hydroxybenzamide]	0.4765		exceptionally high selectivity (Inhibitors with in vitro selectivity values for HDAC6 of at least 30,000 are considered to have exceptionally high selectivity toward HDAC6)	
51438	1110	6307	136	1480	79927	1720	0.0216	70.2	12899	278	2749	59.3	66950	1440	O=C(NO)c1ccc(Cn2c(=O)[nH]c3cc(F)ccc32)cc1 [B3, 4-((5-fluoro-2-oxo-2,3-dihydro-1H-benzo[d]imidazol-1-yl)methyl)N-hydroxybenzamide]	21.1	exceptionally high selectivity (Inhibitors with in vitro selectivity values for HDAC6 of at least 30,000 are considered to have exceptionally high selectivity toward HDAC6)	exceptionally high selectivity (Inhibitors with in vitro selectivity values for HDAC6 of at least 30,000 are considered to have exceptionally high selectivity toward HDAC6)	exceptionally high selectivity (Inhibitors with in vitro selectivity values for HDAC6 of at least 30,000 are considered to have exceptionally high selectivity toward HDAC6)
